Assays:
[1] = tested on: monocytes from healthy donors; test: NKG2D ligand (MICA, MICB, ULBP-1) mRNA induction in monocytes from healthy donors (MHD), qPCR; assay type: cell-based, human
Description: FIG. 2. Biochemical purification of tumor-derived Lactate Dehydrogenase, expression in glioma cell lines and verification of LDH-mediated induction of NKG2D ligands on monocytes. (Panel A) Protein purification strategy. […] of U87 glioblastoma cell line supernatant were subjected to ammonium sulfate precipitation. Active fractions were passed over a phenyl Sepharose column and active fractions were then subjected to size exclusion (Superdex 200), followed by ion exchange (MonoS) before Mass Spectroscopy (MS) analysis. (Panel B) Following separation by chromatography, fractions were dialyzed into PBS and cultured with MHD (healthy monocytes) for 18 hours. Whole cell mRNA was reverse transcribed, and induction of MICB and ULBP-1 was analyzed relative to media alone controls. Western blot analysis using a monoclonal antibody to LDH-5 (ab101562) was performed on […] of total protein to confirm the presence of LDH-5 in the active fractions. (Panel C) mRNA isolated from PBMC of healthy donors, 293T cells (as negative controls), and U87, U251, and SF767 glioma cell lines were analyzed for expression of LDHA and LDHB by qPCR. (Panel D) A 1:10 dilution of fresh, unfrozen glioblastoma cell line supernatants was analyzed for total LDH enzymatic activity and expressed as OD 495 nm. (Panel E) Validation of LDH induction of NKG2D ligands in monocytes. Six hundred twenty five U/L of purified, native LDH-5, fresh U87 supernatant, or fresh U87 supernatant in the presence of 100 mM sodium oxamate (NaOx) were cultured with MHD. Eighteen hours later, mRNA was isolated and analyzed for MICA, MICB, and ULBP-1 by qPCR. Values represent induction relative to MHD cultured in media alone. (Panel F) Fresh U87 supernatant, 625 U/L of purified, native LDH-5, LDH-5+0.5 mM Pyruvate (Pyr), or LDH-5+0.5 mM pyruvate and 100 mM NaOx were cultured with MHD. Eighteen hours later, mRNA was isolated and analyzed for MICA, MICB and ULBP-1 by qPCR. Values represent induction relative to MHD cultured in media alone. (Panel G) MHD were cultured with native LDH-5 isolated from liver cells. Eighteen hours later, MICB (black bars) and ULBP-1 (gray bars) were measured by qPCR. (Panel H) Expression of NKG2D and NKp46 on primary human NK cells following a 12 hour incubation with LDH (50 ug/mL) or lactate (20 mM). Cells were surface stained with antibodies directed against CD3, CD56, NKG2D, and NKp46 and analyzed by flow cytometry. The expression level of NKG2D and NKp46 are plotted against CD56. (Panel I) Expression of CD107a on primary human NK cells following IL-2 (1000 U/ml) activation and a 6 hour incubation with LDH (50 ug/mL) or lactate (20 mM). Cells were surface stained with antibodies directed against CD3, CD56, and CD107a and analyzed by flow cytometry. Representative data are shown in the top panels, a summary of percent CD107a+NK cells is shown below. (Panel J) 293T cells were transiently transfected with a pcDNA3.1 (−) vector encoding either LDHA or LDHB, or both constructs. Supernatant was then cultured with CD14-positively selected MHD. Eighteen hours later, MICB and ULBP-1 were measured by qPCR. Values represent induction relative to monocytes cultured in media alone. *P<0.05, **P<0.01.
FIG. 21. Purified native LDH5 or LDH1 was cultured with monocytes from healthy donors. Eighteen hours later, MICB and ULBP-1 were measured by qPCR. Values represent induction relative to monocytes cultured in medium alone. […]

T cells and NK cells = test: Internalization of LDH-A488 by T cells and NK cells of human PBMC; assay type: cell-based; conditions: 10 ug/mL LDH-A488, 30 min, 37° C., IL-2 cultured PBMC
Description: FIG. 33. Human PBMC were isolated from healthy human blood via Ficoll gradient. PBMC were cultured for 24 h in RPMI+10% FBS supplemented with 1000 U/mL IL-2. Experimental wells were pulsed with 10 ug/mL LDH-A488 for 30 min (control wells received no LDH) at 37° C. Cells were treated for 2 min with 0.5M acetic acid+150 mM NaCl (pH 2.5), followed by 4 subsequent washes in RPMI+10% FBS. Cells were stained with antibodies directed against CD4, CD8, CD28, and CD95 to delineate T cell subsets (CD28+CD95−, Naïve, Na; CD28+CD95+, central memory, CM; CD28−CD95+, effector memory, EM) or against CD3, CD56, and CD16 to delineate NK cell subsets (CD3-CD56hiCD16−; CD3−CD56dimCD16−; CD3−CD56dimCD16+). Frequency and MFI of A488 was corrected against control (no LDH pulse). Shown are 10 data points: 2 patients on 2 different days (in duplicate), and 1 patient on one day in duplicate.
Human PBMC were isolated from healthy human blood via Ficoll gradient. PBMC were cultured for 24 h in RPMI+10% FBS supplemented with 1000 U/mL IL-2. Experimental wells were pulsed with 10 ug/mL LDH-A488 for 30 min (control wells received no LDH) at 37° C. Cells were treated for 2 min with 0.5M acetic acid+150 mM NaCl (pH 2.5), followed by 4 subsequent washes in RPMI+10% FBS. […]

Tumor cells = test: LDH-5 internalization by tumor cells, flow cytometry (FIGS. 16-19); assay type: cell-based; conditions: FIG. 16
Description: FIG. 17. Tumor cells internalize LDH-5, which can be reduced by antibody blocking. 10 ug/ml of LDH5 specific monoclonal antibody was added to cells 1 hour prior to culture with LDH5 as described above and evaluated for internalization using flow cytometry to evaluate fluorescence.
FIG. 19. LDH-5 internalization is receptor mediated and Clathrin dependent. LDH5 internalization is reduced with receptor mediated endocytosis inhibitors.
LDH5 internalization is reduced with receptor mediated endocytosis inhibitors. This supports that internalization is mediated by a specific receptor, as opposite to bulk phagocytosis.

[2] = 156 U/L enzymatically active LDH5 from human liver, monocytes

LDH5: purified native lactate dehydrogenase isoenzyme 5, alpha only tetramer; fluorescently labeled in uptake tests
MICB gene expression compared with medium alone [1, 2]: 7.85 fold induction | ULBP-1 gene expression compared with medium alone [1, 2]: 13.26 fold induction | Lowest concentration of purified native LDH5 that induced transcription of MICB and ULBP-1 ([1]; monocytes from healthy donors, 18 h, qPCR, FIG. 2 panel G): 156 U/L | LDH5 concentration that induced a maximal increase in NKG2D ligand transcription ([1]; monocytes, concentrations above this induced less transcription): 625 U/L | Internalization of LDH5 by T cells and NK cells (T cells and NK cells): internalize | Internalization of LDH-5 by tumor cells (Tumor cells): internalize

Reference: patent US20170029531A1, “INHIBITION OF LACTATE DEHYDROGENASE 5 (LDH-5) BINDING, INCORPORATION, INTERNALIZATION AND/OR ENDOCYTOSIS TO IMMUNE CELLS” (Seattle Children's Hospital (dba Seattle Children's …, priority 2014, published 2017)
